2 compounds from patent publication US20150352232A1, “MR IMAGING DIAGNOSTIC AGENT FOR INTRACTABLE NEUROLOGICAL DISEASE” (SHIGA UNIVERSITY OF MEDICAL SCIENCE, priority 2013, published 2015) can be followed below.

For one experiment, the target named is Aβ oligomers (Homo sapiens, UniProt P05067). As to the kind of experiment: Analysis of binding property using QCM apparatus, sensor with Aβ oligomers fixed (Test Example 3). Conditions: final concentration 10 μM in PBS. The method, then:
(§1) Aβ oligomers or Aβ fibrils were fixed to the sensor portion of the QCM apparatus, and immersed in PBS in a glass container. Subsequently, Compound 8 or Compound 1 was added thereto to a final concentration of 10 μM, and a frequency change was recorded from immediately after the addition.

The next experiment has as its target T1, senile plaques (Homo sapiens, UniProt P05067).
T1 construct: Spots of amyloid β, which forms senile plaques; tissue Jackson Laboratory; host or cells: brain of live APP/PS1 double transgenic mice
As to the kind of experiment: 19F-MR image measurement of the brain after tail vein injection (Test Example 1). Conditions: 200 mg/kg tail vein, three-hour measurement beginning five hours after injection, 7T. Format: in vivo, mouse. The method, then: Compound 1 was weighed out in an amount of 10 mg, and 0.125 ml of 80% Tween-80 was added thereto, followed by dissolution using a glass rod under heating. Subsequently, 0.875 ml of physiological saline was added thereto to prepare a solution for injection (10 mg/ml). The solution was injected in a total amount of 200 mg/kg at […] to the tail vein of each of the genetically modified model mice of Alzheimer's disease (APP/PS1) and the normal wild mice (Wild), which had been subjected to pentobarbital sodium anesthesia. As the genetically modified model mice of Alzheimer's disease (APP/PS1), amyloid precursor protein and presenilin 1 double transgenic mice (APP/PS1, purchased from Jackson Laboratory and bred) were used. After the completion of the injection, under anesthesia, the head of each mouse was continuously evaluated every hour using an MRI apparatus, and all data were added to form images. The brain image of ^19F-MRI was obtained according to the chemical shift imaging method (CSI method). As the MRI apparatus, a 7T Unity Inova MR Scanner (produced by Varian Medical System) was used. Each of the genetically modified model mice of Alzheimer's disease (APP/PS1) and normal wild mice (Wild) were injected with Compound 1. […] FIGS. 1A and 1C are ^19F-MRI images, and FIGS. 1B and 1D are composite photos of ^19F-MRI and ^1H-MRI images.

Another experiment has as its target T2, Aβ fibrils (Homo sapiens, UniProt P05067).
T2 construct: Aβ oligomers or Aβ fibrils were fixed to the sensor portion of the QCM apparatus
As to the kind of experiment: Analysis of binding property using QCM apparatus, sensor with Aβ fibrils fixed (Test Example 3). The settings on record: final concentration 10 μM in PBS. The method, then: as §1

“Also recorded” adds a separate entry of the source.

T2 sequence (P05067 672-713 limits assumed): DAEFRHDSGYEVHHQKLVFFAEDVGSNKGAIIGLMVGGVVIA
Sequence of Aβ oligomers (P05067 672-713 limits assumed): as above
T1 sequence (P05067 672-713 limits assumed): as above

Turning to `CN(C)c1ccc(/C=C/c2nc3ccc(OCCOCCOCCOCCOCCOCCOCCOCC(F)(F)F)cc3o2)cc1` [Compound 1, 6-(3′,6′,9′,12′,15′,18′,21′-heptaoxa-23′,23′,23′-trifluorotricosanyloxy)-2-(4′-dimethylaminostyryl)benzoxazole], the “binding to Aβ oligomers (conclusion from QCM)” value on Aβ oligomers is reported as “does not bind to Aβ oligomers”. In addition, the figures for the “19F-MR signals presumed to be senile plaques inside of the brain” value on senile plaques (genetically modified model mice of Alzheimer's disease (APP/PS1)) and on senile plaques (normal wild mouse (Wild)) were “signals presumed to be senile plaques were detected inside of the brain” and “such signals were not detected”, respectively. Also, the “binding to Aβ fibrils (conclusion from QCM)” value on Aβ fibrils is “binds to Aβ fibrils”.
On to `COC(=O)CCC(C(=O)/C=C/c1ccc(O)c(OC(F)(F)F)c1)C(=O)/C=C/c1ccc(O)c(OC(F)(F)F)c1` [Compound 8], for which, on Aβ oligomers, the “binding to Aβ oligomers (conclusion from QCM)” value is “binding to both Aβ oligomers and Aβ fibrils”. In addition, at Aβ fibrils, the “QCM frequency change, sensor with Aβ fibrils fixed (Fibrillar) compared to Control” value is “significant frequency reduction; also recorded: frequency reduction was observed”; the “binding to Aβ fibrils (conclusion from QCM)” value is “binding to both Aβ oligomers and Aβ fibrils”.
